“And” between values parts separate entries of the source, which are not always exact repeats. Equal values may be shown once.
System: angiotensin II vasopressor response
Test: AII challenge: inhibition of angiotensin II vasopressor response in conscious SHR
Format: in vivo, rat (Male Okamoto-Aoki SHR)
Settings: 3 mg/kg iv; for % Inhibition / Average Change: n = 2
Source text: By administering a compound of this invention to a rat, and then challenging with angiotensin II, a blockage of the vasopressor response is realized.
Conscious Male Okamoto-Aoki SHR, 16-20 weeks old, weighing approximately 330 g are purchased from Charles River Labs (Wilmington, Mass.). Conscious rats are restrained in a supine position with elastic tape. The area at the base of the tail is locally anesthetized by subcutaneous infiltration with 2% procaine. The ventral caudal artery and vein are isolated, and a cannula made of polyethylene (PE) 10-20 tubing (fused together by heat) is passed into the lower abdominal aorta and vena cava, respectively. The cannula is secured, heparinized (1,000 I.U./ml), sealed and the wound is closed. The animals are placed in plastic restraining cages in an upright position. The cannula is attached to a Statham P23Db pressure transducer, and pulsatile blood pressure is recorded to 10-15 minutes with a Gould Brush recorder. (Chan et al., (Drug Development Res., 18:75-94, 1989).
Angiotensin II (human sequence, Sigma Chem. Co., St. Louis, Mo.) of 0.05 and 0.1 μg/kg i.v. is injected into all rats (predosing response). Then a test compound, vehicle or a known angiotensin II antagonist is administered i.v., i.p. or orally to each set of rats. The two doses of angiotensin II are given to each rat again at 30. 60. 90. 120. 180. 240 and 300 minutes post dosing the compound or vehicle. The vasopressor response of angiotensin II is measured for the increase in systolic blood pressure in mmHg. The percentage of antagonism or blockade of the vasopressor response of angiotensin II by a compound is calculated using the vasopressor response (increase in systolic blood pressure) of angiotensin II of each rat predosing the compound as 100%. A compound is considered active if at 30 mg/kg i.v. it antagonized at least 50% of the response.

[1] = AII 0.05 mcg/kg, 30 min post dose
[2] = AII 0.05 mcg/kg, 60 min post dose
[3] = AII 0.05 mcg/kg, 90 min post dose
[4] = AII 0.05 mcg/kg, 120 min post dose
[5] = AII 0.05 mcg/kg, 180 min post dose
[6] = AII 0.05 mcg/kg, 240 min post dose
[7] = AII 0.05 mcg/kg, 300 min post dose
[8] = AII 0.1 mcg/kg, 30 min post dose
[9] = AII 0.1 mcg/kg, 60 min post dose
[10] = AII 0.1 mcg/kg, 90 min post dose
[11] = AII 0.1 mcg/kg, 120 min post dose
[12] = AII 0.1 mcg/kg, 180 min post dose
[13] = AII 0.1 mcg/kg, 240 min post dose
[14] = AII 0.1 mcg/kg, 300 min post dose

CCCCc1nc2ccc(C3CCC4CCCCC4O3)cc2c(=O)n1Cc1ccc(-c2ccccc2-c2nn[nH]n2)cc1 (stereo not shown) [Example 11]
Change (response to AII, individual rat) [1]: 15 mmHg and 20 mmHg
% Inhibition [1]: 59%
Average Change [1]: 17.5 mmHg
Change (response to AII, individual rat) [2]: 30 mmHg and 15 mmHg
% Inhibition [2]: 47%
Average Change [2]: 22.5 mmHg
Change (response to AII, individual rat) [3]: 30 mmHg and 10 mmHg
% Inhibition [3]: 53%
Average Change [3]: 20 mmHg
Change (response to AII, individual rat) [4]: 10 mmHg
% Inhibition [4]: 76%
Average Change [4]: 10 mmHg
Change (response to AII, individual rat) [5]: 30 mmHg and 35 mmHg
% Inhibition [5]: 24%
Average Change [5]: 32.5 mmHg
Change (response to AII, individual rat) [6]: 20 mmHg and 7 mmHg
% Inhibition [6]: 68%
Average Change [6]: 13.5 mmHg
Change (response to AII, individual rat) [7]: 30 mmHg and 15 mmHg
% Inhibition [7]: 47%
Average Change [7]: 22.5 mmHg
Change (response to AII, individual rat) [8]: 10 mmHg and 30 mmHg
% Inhibition [8]: 65%
Average Change [8]: 20 mmHg
Change (response to AII, individual rat) [9]: 20 mmHg and 10 mmHg
% Inhibition [9]: 74%
Average Change [9]: 15 mmHg
Change (response to AII, individual rat) [10]: 30 mmHg and 25 mmHg
% Inhibition [10]: 52%
Average Change [10]: 27.5 mmHg
Change (response to AII, individual rat) [11]: 15 mmHg and 25 mmHg
% Inhibition [11]: 65%
Average Change [11]: 20 mmHg
Change (response to AII, individual rat) [12]: 35 mmHg and 20 mmHg
% Inhibition [12]: 52%
Average Change [12]: 27.5 mmHg
Change (response to AII, individual rat) [13]: 35 mmHg and 30 mmHg
% Inhibition [13]: 43%
Average Change [13]: 32.5 mmHg
Change (response to AII, individual rat) [14]: 35 mmHg and 30 mmHg
% Inhibition [14]: 43%
Average Change [14]: 32.5 mmHg
Response After AII (individual rat) (after AII 0.05 mcg/kg, 30 min post dose): 260 mmHg and 265 mmHg
Response After AII (individual rat) (after AII 0.05 mcg/kg, 60 min post dose): 260 mmHg and 255 mmHg
Response After AII (individual rat) (after AII 0.05 mcg/kg, 90 min post dose): 265 mmHg and 245 mmHg
Response After AII (individual rat) (after AII 0.05 mcg/kg, 120 min post dose): 255 mmHg and 240 mmHg
Response After AII (individual rat) (after AII 0.05 mcg/kg, 180 min post dose): 265 mmHg and 260 mmHg
Response After AII (individual rat) (after AII 0.05 mcg/kg, 240 min post dose): 250 mmHg and 240 mmHg
Response After AII (individual rat) (after AII 0.05 mcg/kg, 300 min post dose): 275 mmHg and 255 mmHg
Response After AII (individual rat) (after AII 0.1 mcg/kg, 30 min post dose): 260 mmHg and 280 mmHg
Response After AII (individual rat) (after AII 0.1 mcg/kg, 60 min post dose): 260 mmHg and 255 mmHg
Response After AII (individual rat) (after AII 0.1 mcg/kg, 90 min post dose): 285 mmHg and 260 mmHg
Response After AII (individual rat) (after AII 0.1 mcg/kg, 120 min post dose): 255 mmHg and 250 mmHg
Response After AII (individual rat) (after AII 0.1 mcg/kg, 180 min post dose): 270 mmHg and 255 mmHg
Response After AII (individual rat) (after AII 0.1 mcg/kg, 240 min post dose): 285 mmHg and 255 mmHg
Response After AII (individual rat) (after AII 0.1 mcg/kg, 300 min post dose): 275 mmHg
Control Before AII (individual rat) (before AII 0.05 mcg/kg, 30 min post dose): 245 mmHg
Control Before AII (individual rat) (before AII 0.05 mcg/kg, 60 min post dose): 230 mmHg and 240 mmHg
Control Before AII (individual rat) (before AII 0.05 mcg/kg, 90 min post dose): 235 mmHg
Control Before AII (individual rat) (before AII 0.05 mcg/kg, 120 min post dose): 245 mmHg and 230 mmHg
Control Before AII (individual rat) (before AII 0.05 mcg/kg, 180 min post dose): 235 mmHg and 225 mmHg
Control Before AII (individual rat) (before AII 0.05 mcg/kg, 240 min post dose): 230 mmHg and 233 mmHg
Control Before AII (individual rat) (before AII 0.05 mcg/kg, 300 min post dose): 245 mmHg and 240 mmHg
Control Before AII (individual rat) (before AII 0.1 mcg/kg, 30 min post dose): 250 mmHg
Control Before AII (individual rat) (before AII 0.1 mcg/kg, 60 min post dose): 240 mmHg and 245 mmHg
Control Before AII (individual rat) (before AII 0.1 mcg/kg, 90 min post dose): 255 mmHg and 235 mmHg
Control Before AII (individual rat) (before AII 0.1 mcg/kg, 120 min post dose): 240 mmHg and 225 mmHg
Control Before AII (individual rat) (before AII 0.1 mcg/kg, 180 min post dose): 235 mmHg
Control Before AII (individual rat) (before AII 0.1 mcg/kg, 240 min post dose): 250 mmHg and 225 mmHg
Control Before AII (individual rat) (before AII 0.1 mcg/kg, 300 min post dose): 240 mmHg and 245 mmHg

Source: patent US5338736A, “Angiotensin II receptor blocking 2,3,6-substituted quinazolinones” (American Cyanamid Company, priority 1993, dated 1994)
